Reference: patent publication US20060057669A1, “Inactive transcription factor tif-ia and uses thereof” (priority 2002, published 2006)

Assays:
[1] = system: TIF-IA; test: In vitro transcription assay of TIF-IA purified from treated cells, in nuclear extract from density-arrested FM3A cells; type: biochemical
Procedure: (A) TIF-IA activity in starved and serum-stimulated cells. The indicated amounts of TIF-IA purified from starved NIH3T3 cells (lanes 2-4) or cells that were stimulated by serum in the absence (lanes 5-7) or presence of PD98059 (lanes 8-10) were assayed for their capability to restore transcription of a nuclear extract from density-arrested FM3A cells (lane 1). The amount and purity of TIF-IA were estimated on silver-stained SDS-polyacrylamide gels (data not shown).
FLAG-tagged TIF-IA was purified from untreated (lanes 2-3) or PD98059-treated HEK293T cells (lanes 4-5). The indicated amounts of TIF-IA were assayed for their capability to restore transcription of a nuclear extract from density-arrested FM3A cells (lane 1). The amount of TIF-IA was estimated on silver-stained SDS-polyacrylamide gels (data not shown).
20 and 40 ng of TIF-IA that was immunopurified from untreated (lanes 2, 3) and rapamycin-treated cells (lanes 4, 5) were added to transcription reactions containing nuclear extracts (30 μg) from density-arrested cells.
Nuclear extracts were prepared from exponentially growing (8×10^5 cells/ml), density-arrested or PD98059-treated (CN Bioscience, Bad Soden, Germany) 40 μM, 0.5 hr) or rapamycin-treated FM3A cells (ATCC, Manassas, USA). […] After incubation for 60 min at 30° C., RNA was extracted and analyzed on non-denaturing 5% polyacrylamide gels […]

[2] = system: HEK293T cells; test: Quantitative fluorimetric viability assay with calcein-AM; type: cell-based; details: 24, 36, 48 and 60 hr after transfection; 2 μM calcein-AM

Row | Compound | transcriptional activity of TIF-IA from treated cells ([1]; NIH3T3 cells stimulated with serum in the presence of PD98059) | transcriptional activity of TIF-IA from treated cells ([1]; unsynchronized cells treated for 30 min with PD98059) | cellular growth rate by calcein-AM staining [2]
1 | COc1cccc(-c2cc(=O)c3ccccc3o2)c1N [PD98059] | TIF-IA remained inactive | transcriptionally inactive | –
2 | TIF-IA: wild-type human transcription initiation factor TIF-IA, accession No. AJ272050 | – | – | did not affect cell viability and growth
